Data on 14 compounds can be found in patent publication US20130345215A1, “PYRAZOLOPYRIMIDONE AND PYRAZOLOPYRIDONE INHIBITORS OF TANKYRASE” (Genentech, Inc., priority 2012, published 2013).

This test deals with Wnt stimulated TCF transcriptional activity, HEK293-TS 112 TCF reporter cell line. The test can be described thus: Tankyrase 1 Assay (Example 119): Wnt3A-stimulated TOPbrite TCF luciferase reporter. In kind it is cell-based. Particulars: Compounds I-59 to I-144, procedure in Example 119 (0.5 ug/mL Wnt3A, 16 hours); read-out: TNKS1 (IC50). On the procedure: Inhibition of the Wnt stimulated TCF transcriptional activity by tankyrase inhibitors was determined utilizing a HEK293-TS 112 TCF reporter cell line. A Wnt-responsive luciferase reporter named TOPbrite was constructed by cloning the enhancer element of Super8xTOPFlash containing eight TCF/LEF binding sites into the pGL4.28 vector (Promega) upstream of the minimal promoter element, and selecting for hygromycin B resistance (50 μg/ml). Cells were seeded into 384-well plates in the presence of 0.5 ug/mL of Wnt3A at a density of 20,000 cells per well in 25 ul of F:12 DMEM media supplemented with 10% FBS and 2 mM Glutamax. Cells seeded without the addition of Wnt3A were used as background signal. Compounds of various concentrations were added to cells and incubated at 37 degrees with 5% CO2 for 16 hours. The assay was terminated with the addition of Promega Dual Glo kit per manufacturer's instructions. A ratio of TOPbrite Firefly Luciferase and SV40 Renillla Luciferase was calculated and the background from the neutral wells was subtracted yielding the final normalized measurement of TCF transcriptional activity. Compound IC50s were determined by four-parameter curve fitting using GeneData software.
On the technique in general: In a reporter assay the amount or activity of a reporter protein is the signal.
The term IC50 denotes the concentration that gives 50% inhibition. Turning to “6-[4-(3-fluorophenyl)-1- piperidyl]-1-methyl-5H- pyrazolo[3 4-d]pyrimidin- 4-one [Compound I-84]”, the IC50 amounted to 17 nM.

For `COC(C)c1cc(F)c(N2CCN(c3nc4c(cnn4C)c(=O)[nH]3)CC2)c(F)c1` (centres unmarked) [Compound I-71, 6-[4-[2 6-difluoro-4-(1-methoxyethyl)phenyl]piperazin-1-yl]-1-methyl-5H-pyrazolo[3 4-d]pyrimidin-4-one], the half-inhibitory concentration (IC50) stood at 8.3 nM.

For the compound `Cn1cncc1C1CCN(c2nc3c(cnn3C)c(=O)[nH]2)C1` (centres unmarked) [Compound I-114, 1-methyl-6-[3-(3-methylimidazol-4-yl)pyrrolidin-1-yl]-5H-pyrazolo[3 4-d]pyrimidin-4-one], the IC50 was 90.3 nM.

As for `Cn1cnnc1C1CCN(c2nc3c(cnn3C)c(=O)[nH]2)CC1` [Compound I-122, 1-methyl-6-[4-(4-methyl-1 2 4-triazol-3-yl)-1-piperidyl]-5H-pyrazolo[3 4-d]pyrimidin-4-one], the IC50 amounted to 163 nM.

For `Cn1ncc2c(=O)[nH]c(N3CCN(c4c(F)cc(OC5COC5)cc4F)CC3)nc21` [Compound I-85, 6-[4-[2 6-difluoro-4-(oxetan-3-yloxy)phenyl]piperazin-1-yl]-1-methyl-5H-pyrazolo[3 4-d]pyrimidin-4-one], the IC50 is 17.1 nM.

Consider `CCCn1ccc(C2(C)CCN(c3nc4c(cnn4C)c(=O)[nH]3)CC2)n1` [Compound I-98, 1-methyl-6-[4-methyl-4-(1-propylpyrazol-3-yl)-1-piperidyl]-5H-pyrazolo[3 4-d]pyrimidin-4-one], for which the IC50 is 37.4 nM.

For the compound `COCCOc1cc(F)c(N2CCN(c3nc4c(cnn4C4CCS(=O)(=O)CC4)c(=O)[nH]3)CC2)c(F)c1` [Compound I-128, 6-[4-[2 6-difluoro-4-(2-methoxyethoxy)phenyl]piperazin-1-yl]-1-(1 1-dioxothian-4-yl)-5H-pyrazolo[3 4-d]pyrimidin-4-one], the IC50 was found to be 268 nM.

For the compound `Cn1ncc2c(=O)[nH]c(N3CCN([C@H]4CC[C@H](O)CC4)CC3)nc21` [Compound I-120, 6-[4-(4-hydroxycyclohexyl)piperazin-1-yl]-1-methyl-5H-pyrazolo[3 4-d]pyrimidin-4-one], the IC50 was 153 nM.

With `Cn1ncc2c(=O)[nH]c(N3CCC(Cc4cccnc4)C3)nc21` (centres unmarked) [Compound I-137, 1-methyl-6-[3-(3-pyridylmethyl)pyrrolidin-1-yl]-5H-pyrazolo[3 4-d]pyrimidin-4-one], the concentration for half-maximal inhibition (IC50) worked out at 490 nM.

`Cn1ncc2c(=O)[nH]c(-c3ccc(S(C)(=O)=O)cc3)nc21` [Compound I-102, 1-methyl-6-(4-methylsulfonylphenyl)-5H-pyrazolo[3 4-d]pyrimidin-4-one]: the half-inhibitory concentration (IC50) was 47.9 nM.

Take `COCCO[C@H]1CC[C@@H](N2CCN(c3nc4c(cnn4C)c(=O)[nH]3)CC2)CC1` [Compound I-136, 6-[4-[4-(2-methoxyethoxy)cyclohexyl]piperazin-1-yl]-1-methyl-5H-pyrazolo[3 4-d]pyrimidin-4-one]: the concentration for half-maximal inhibition (IC50) worked out at 468 nM.

As to `Cn1ncc2c(=O)[nH]c(N3CCN(c4c(F)cc(OC5CCS(=O)(=O)CC5)cc4F)CC3)nc21` [Compound I-70, 6-[4-[4-(1 1-dioxothian-4-yl)oxy-2 6-difluoro-phenyl]piperazin-1-yl]-1-methyl-5H-pyrazolo[3 4-d]pyrimidin-4-one], the IC50 is 7.9 nM.

As to `COCCO[C@H]1CC[C@H](N2CCN(c3nc4c(cnn4C)c(=O)[nH]3)CC2)CC1` [Compound I-121, 6-[4-[4-(2-methoxyethoxy)cyclohexyl]piperazin-1-yl]-1-methyl-5H-pyrazolo[3 4-d]pyrimidin-4-one], the half-inhibitory concentration (IC50) is 159 nM.

Turning to `O=c1[nH]c(N2CCN(c3c(F)cc(F)cc3F)CC2)nc2[nH]ncc12` [Compound I-104, 6-[4-(2 4 6-trifluorophenyl)piperazin-1-yl]-1 5-dihydropyrazolo[3 4-d]pyrimidin-4-one], the IC50 was found to be 55 nM.
